Reference: PubChem BioAssay (NCI)
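Interpolation was linear, between the two tested concentrations surrounding the appropriate level; five concentrations were tested over 48 hours in 96-well plates. TGI: total growth inhibition.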

Key:
Assay in all cases: growth of human tumour cells (NCI), 48 h
786-0 renal = tested on: 786-0 renal
A498 renal = tested on: A498 renal
A549 NSCLC = tested on: A549 NSCLC
ACHN renal = tested on: ACHN renal
BT-549 breast = tested on: BT-549 breast
CAKI-1 renal = tested on: CAKI-1 renal
CCRF-CEM leukemia = tested on: CCRF-CEM leukemia
COLO 205 colon = tested on: COLO 205 colon
DU-145 prostate = tested on: DU-145 prostate
EKVX NSCLC = tested on: EKVX NSCLC
HCC-2998 colon = tested on: HCC-2998 colon
HCT-116 colon = tested on: HCT-116 colon
HCT-15 colon = tested on: HCT-15 colon
HL-60(TB) leukemia = tested on: HL-60(TB) leukemia
HOP-62 NSCLC = tested on: HOP-62 NSCLC
HOP-92 NSCLC = tested on: HOP-92 NSCLC
HS 578T breast = tested on: HS 578T breast
HT29 colon = tested on: HT29 colon
IGROV1 ovarian = tested on: IGROV1 ovarian
KM12 colon = tested on: KM12 colon
LOX IMVI melanoma = tested on: LOX IMVI melanoma
M14 melanoma = tested on: M14 melanoma
MALME-3M melanoma = tested on: MALME-3M melanoma
MCF7 breast = tested on: MCF7 breast
MDA-MB-231 breast = tested on: MDA-MB-231 breast
MDA-MB-435 = tested on: MDA-MB-435
MDA-N = tested on: MDA-N
MOLT-4 leukemia = tested on: MOLT-4 leukemia
NCI-H226 lung = tested on: NCI-H226 lung
NCI-H23 lung = tested on: NCI-H23 lung
NCI-H460 lung = tested on: NCI-H460 lung
NCI-H522 lung = tested on: NCI-H522 lung
NCI/ADR-RES ovarian = tested on: NCI/ADR-RES ovarian
OVCAR-3 ovarian = tested on: OVCAR-3 ovarian
OVCAR-4 ovarian = tested on: OVCAR-4 ovarian
OVCAR-5 ovarian = tested on: OVCAR-5 ovarian
OVCAR-8 ovarian = tested on: OVCAR-8 ovarian
PC-3 prostate = tested on: PC-3 prostate
RPMI-8226 leukemia = tested on: RPMI-8226 leukemia
RXF 393 renal = tested on: RXF 393 renal
SF-268 CNS = tested on: SF-268 CNS
SF-295 CNS = tested on: SF-295 CNS
SF-539 CNS = tested on: SF-539 CNS
SK-MEL-2 melanoma = tested on: SK-MEL-2 melanoma
SK-MEL-28 melanoma = tested on: SK-MEL-28 melanoma
SK-MEL-5 melanoma = tested on: SK-MEL-5 melanoma
SK-OV-3 ovarian = tested on: SK-OV-3 ovarian
SN12C renal = tested on: SN12C renal
SNB-19 CNS = tested on: SNB-19 CNS
SNB-75 CNS = tested on: SNB-75 CNS
SR leukemia = tested on: SR leukemia
SW-620 colon = tested on: SW-620 colon
T-47D breast = tested on: T-47D breast
U251 CNS = tested on: U251 CNS
UACC-257 melanoma = tested on: UACC-257 melanoma
UACC-62 melanoma = tested on: UACC-62 melanoma
UO-31 renal = tested on: UO-31 renal

SMILES: CC(=O)OCC1OC(SC2=NC(=O)/C(=C/c3ccccc3)S2)C(OC(C)=O)C(OC(C)=O)C1OC(C)=O (configuration not stated)
- TGI (786-0 renal): 30.8 µM
- TGI (A498 renal): 81.2 µM
- TGI (A549 NSCLC): > 100 µM
- TGI (ACHN renal): > 100 µM
- TGI (BT-549 breast): 78.9 µM
- TGI (CAKI-1 renal): 12 µM
- TGI (CCRF-CEM leukemia): 94.4 µM
- TGI (COLO 205 colon): > 100 µM
- TGI (DU-145 prostate): > 100 µM
- TGI (EKVX NSCLC): 70.4 µM
- TGI (HCC-2998 colon): > 100 µM
- TGI (HCT-116 colon): > 100 µM
- TGI (HCT-15 colon): > 100 µM
- TGI (HL-60(TB) leukemia): 31.3 µM
- TGI (HOP-62 NSCLC): > 100 µM
- TGI (HOP-92 NSCLC): 44.2 µM
- TGI (HS 578T breast): 75.7 µM
- TGI (HT29 colon): > 100 µM
- TGI (IGROV1 ovarian): > 100 µM
- TGI (KM12 colon): > 100 µM
- TGI (LOX IMVI melanoma): 42.9 µM
- TGI (M14 melanoma): > 100 µM
- TGI (MALME-3M melanoma): 70.5 µM
- TGI (MCF7 breast): 52.2 µM
- TGI (MDA-MB-231 breast): 44.5 µM
- TGI (MDA-MB-435): 38.8 µM
- TGI (MDA-N): > 100 µM
- TGI (MOLT-4 leukemia): 54.5 µM
- TGI (NCI-H226 lung): 95 µM
- TGI (NCI-H23 lung): > 100 µM
- TGI (NCI-H460 lung): > 100 µM
- TGI (NCI-H522 lung): 80.6 µM
- TGI (NCI/ADR-RES ovarian): 84 µM
- TGI (OVCAR-3 ovarian): 44.4 µM
- TGI (OVCAR-4 ovarian): > 100 µM
- TGI (OVCAR-5 ovarian): > 100 µM
- TGI (OVCAR-8 ovarian): 31.7 µM
- TGI (PC-3 prostate): > 100 µM
- TGI (RPMI-8226 leukemia): 66.3 µM
- TGI (RXF 393 renal): 67.6 µM
- TGI (SF-268 CNS): 52.3 µM
- TGI (SF-295 CNS): > 100 µM
- TGI (SF-539 CNS): 45.7 µM
- TGI (SK-MEL-2 melanoma): > 100 µM
- TGI (SK-MEL-28 melanoma): > 100 µM
- TGI (SK-MEL-5 melanoma): 42.8 µM
- TGI (SK-OV-3 ovarian): > 100 µM
- TGI (SN12C renal): > 100 µM
- TGI (SNB-19 CNS): > 100 µM
- TGI (SNB-75 CNS): 44.7 µM
- TGI (SR leukemia): 51.5 µM
- TGI (SW-620 colon): 74.1 µM
- TGI (T-47D breast): > 100 µM
- TGI (U251 CNS): 91 µM
- TGI (UACC-257 melanoma): > 100 µM
- TGI (UACC-62 melanoma): 87.2 µM
- TGI (UO-31 renal): 52.8 µM
